In PubChem BioAssay AID1259426 (Fisher Drug Discovery Resource Center, 2018) one finds EC50 data, which are given here for 89 compounds.

Molecules are shown by their SMILES. Values joined by “and” are separate entries in the source; they are usually repeats but may differ in a detail not shown here. Identical values can stand only once. Active and inactive are the calls of the source.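 The calls were made as follows: active = EC50 under a set limit in control cells lacking the mosquito receptor, marking a fluorescence artifact; inactive = the rest.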 Where only a bound is given, the exact number is not on record here.

This assay deals with HEK293 Galpha15/GCaMP6s without NPYLR7, calcium fluorescence. In words: calcium response in NPYLR7-null HEK293 cells, dose response, counter-screen for mosquito NPYLR7 agonist project, cell-based, HEK293 lacking NPYLR7 (AID 1259426).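 Also: potency for a rise in fluorescence over baseline.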 On the technique in general: A counterscreen serves to expose hits that act by an unwanted route or on another target.
Broadly, the EC50 is the concentration giving half of the maximal effect. Take `COc1cc(C=C2C=c3c(O)cccc3=C2O)cc(Cl)c1O`: the EC50 is 0.524 µM. The value for `Cc1ccc2c(c1)CCCN2CC(=O)N(CCC(N)=O)c1ccccc1` was 16.8 µM; that for `Oc1ccc(-c2onc3ccc(Cl)cc23)cc1` was > 20 µM (inactive); that for `CCOc1cccc(C=C2Oc3cc(O)ccc3C2=O)c1OC` was > 20 µM (inactive). Under `COc1ccccc1CCNC(=O)c1ccc(Cn2c(C)nc3ccccc32)o1` stands > 20 µM (inactive); under `CCCc1ccccc1N1C(=O)CSC1c1ccc(NC(=O)CCl)cc1` (centres undefined), > 20 µM (inactive). The value for `COC(=O)c1cc(N)c(/C=C/c2cccs2)s1` was 0.577 µM.

For `Cc1cccc(N2C(=O)NC(=O)/C(=C/c3cn(C)c4ccccc34)C2=O)c1`, the EC50 was > 20 µM (inactive). Take `CN1CCN(Cc2c(O)ccc3c2O/C(=C\c2cc4cc(Br)ccc4o2)C3=O)CC1`: the EC50 is 12.7 µM. In the case of `Nc1ncnc2c1ncn2[C@@H]1O[C@H](CO)[C@@H](O)[C@H]1O`, the EC50 is under 0.039 µM.

Turning to `CCOC(=O)C1=C(O)/C(=C\c2ccc(N(C)C)cc2)SC1=Nc1ccc(OC)cc1OC`, the EC50 is > 20 µM (inactive). Under `N#C/C(=C\c1ccc(O)c(O)c1)C(=O)Nc1ccccc1` stands > 20 µM (inactive). Under `COc1cc(-c2nc3n(n2)C(c2ccc(O)cc2)C(C(N)=O)=C(C)N3)cc(OC)c1OC` (centres undefined) stands > 20 µM (inactive); under `N#CC1C(=N)Oc2cc(O)ccc2C1c1ccncc1` (centres undefined), 7.22 µM. As for `CC(C)CN1C(=O)C(=Cc2c(N3CCN(CCO)CC3)nc3ccccn3c2=O)SC1=S`, the EC50 is > 20 µM (inactive). Under `CCN1CCN(Cc2c(O)ccc3c2O/C(=C\c2cc4cc(Br)ccc4o2)C3=O)CC1` stands 6.94 µM; under `C[C@@H]1OC(O[C@H]2[C@H](OC(=O)[C@]34CCC(C)(C)CC3C3=CCC5[C@@]6(C)CC[C@H](OC7O[C@@H](C)[C@H](O[C@@H]8OC[C@@H](O)[C@H](O)[C@H]8O)[C@@H](O)[C@H]7O)C(C)(C)C6CC[C@@]5(C)[C@]3(C)CC4O)OC[C@H](O)[C@H]2O)[C@H](O)[C@H](O)[C@H]1O[C@@H]1O[C@H](CO)[C@@H](O)[C@H](O)[C@H]1O` (some centres undefined), 10.3 µM; under `O=C1/C(=C/c2cccc(Cl)c2)Oc2c1ccc(O)c2CN1CCN(CCO)CC1`, 11.8 µM. The value for `CC(=O)Nc1sc2c(c1-c1nc3ccccc3s1)CCN(Cc1ccccc1)C2` was 3.18 µM; that for `N#C/C(=C\c1ccc(O)c(O)c1)C(=O)NCCCc1ccccc1` was > 20 µM (inactive). Under `O=C(O)c1[nH]ncc1CN1CCc2onc(-c3ccc(C(F)(F)F)cc3)c2C1` stands > 20 µM (inactive); under `CC(C)NCC(O)c1ccc(O)c(O)c1` (centres undefined), under 0.039 µM. Turning to `COc1cc(/C=C2\SC(=S)N(C(C)C(=O)O)C2=O)ccc1O` (centres undefined), the EC50 was 3.02 µM. Under `CS(=O)(=O)c1ccc(-c2cccc3c2OC(CNC(=O)c2cc[n+]([O-])cc2)C3)cc1` (centres undefined) stands > 20 µM (inactive). For `NC(=NCCCCCCN=C(N)N=C(N)Nc1ccc(Cl)cc1)N=C(N)Nc1ccc(Cl)cc1`, the EC50 was > 20 µM (inactive). Consider `O=C1c2cccc3c(NCC(O)CCl)ccc(c23)C(=O)N1c1ccccc1` (centres undefined), for which the EC50 was under 0.039 µM. `N#CC1C(=N)Oc2cc(N)ccc2C1c1c(Cl)cccc1Cl` (centres undefined): the EC50 was > 20 µM (inactive).

In the case of `Cc1[nH]c(/C=C2\C(=O)Nc3ccccc32)c(C)c1CCC(=O)O`, the EC50 was under 0.039 µM.

Take `N#CC(C#N)=C1C=C2C=C(N3CCN(Cc4ccccc4)CC3)CCC2CC1` (centres undefined): the EC50 was > 20 µM (inactive). Under `CCOc1cc(/C=C2/NC(=S)NC2=O)cc(Br)c1O` stands 6.37 µM; under `COc1cc(OC)c(OC)cc1/C=C1/SC(=S)N(CC(=O)O)C1=O`, 5.82 µM; under `C=CCNc1ccc2c3c(cccc13)C(=O)N(c1ccccc1)C2=O`, 0.0583 µM. Under `COc1cc(/C=C2\Oc3c(ccc4c3CN(CC3CCCO3)CO4)C2=O)cc(OC)c1OC` (centres undefined) stands 9.34 µM; under `O=C(CNCc1ccccc1)N1CC(=O)N(c2cccc(Cl)c2)C1`, > 20 µM (inactive); under `OC=c1ccc2cccc3nc(C(F)(F)F)nc1c23`, 11.2 µM. With `CCn1c(=O)c2c(nc(/C=C/c3ccc(OC)c(OC)c3)n2C)n(CC)c1=O`, the EC50 was > 20 µM (inactive). As for `COc1ccc(/C=C2\Oc3c(ccc4c3CN(CC3CCCO3)CO4)C2=O)cc1` (centres undefined), the EC50 is 9.33 µM. For the compound `Nc1ccc2c3c(cccc13)C(=O)NC2=O`, the 50% effective concentration (EC50) is 2.07 µM.

In the case of `Cc1nc2ncccc2cc1C(=O)N1CCC2(CCNC(=O)CC2)CC1`, the EC50 is > 20 µM (inactive). Regarding `COc1ccc(OC)c(CCNc2nc3cnc(-c4cccc5ccccc45)cc3n2C)c1`, the EC50 is > 20 µM (inactive). Under `Cc1ccc(/C=C2/Oc3cc(O)ccc3C2=O)s1` stands 17.2 µM. The value for `CCOC(=O)c1nc2ccccc2nc1N1CCN(C(=O)N2CCOCC2)CC1` was > 20 µM (inactive); that for `Cc1ccc(N2C(=O)NC(=O)/C(=C\c3cccs3)C2=O)cc1` was > 20 µM (inactive). With `N#CC1C(=N)Oc2cc(O)ccc2C1c1ccccc1I` (centres undefined), the EC50 is 7.42 µM.

On to `Cc1cc2nc3c(=O)[nH]c(=O)nc-3n(C[C@H](O)[C@H](O)[C@H](O)CO)c2cc1C`, for which the EC50 was 0.508 µM. The value for `Nc1ccc(Oc2cc(N)cc(Oc3ccccc3)c2)cc1` was 18.3 µM. For `Nc1c2c(nc3sc4c(c13)CCCC4)CCCCC2`, the EC50 was > 20 µM (inactive). Regarding `O=c1nc2sc3[nH]c(=O)sc3cc-2s1`, the EC50 was under 0.039 µM. With `O=C(c1snc2c(=O)n(Cc3ccccc3)c(=O)[nH]c12)N1CCSCC1`, the EC50 is > 20 µM (inactive). Under `COc1ccc(NCc2ccc(OC)c(Br)c2)cn1` stands 5.12 µM; under `COC(=O)c1cnc(/C=C/c2cc(C)c(O)c(C)c2)s1`, > 20 µM (inactive); under `COc1ccc2oc(=O)c(-c3nnc(Nc4cc(Cl)ccc4OC)s3)cc2c1`, > 20 µM (inactive). Under `CC(C)N1CCc2c(sc(NC(=O)C3CC3)c2-c2nc3ccccc3s2)C1` stands 4.79 µM. Turning to `Cc1cc(C=C2Sc3ccccc3N2C)cc(C)[n+]1Cc1ccncc1`, the EC50 was 18.9 µM. In the case of `CC(C)(C)NCC(O)c1ccc(O)c(CO)c1` (centres undefined), the EC50 is > 20 µM (inactive). On to `COc1cccc(CN2C(=O)c3cccc(N)c3C2=O)c1`, for which the EC50 is > 20 µM (inactive).

Turning to `CN1C(=CC=C2C(=O)CC(C)(C)CC2=O)C(C)(C)c2ccccc21`, the EC50 was 13.1 µM. Under `COc1ccc(CCN2COc3ccc4c(c3C2)O/C(=C\c2ccncc2)C4=O)cc1OC` stands 14.8 µM.

As for `Cc1oc(-c2cccc(NC(=O)CC(C)C)c2)nc1CNC(=O)Cc1cc(F)cc(F)c1`, the EC50 was > 20 µM (inactive). For the compound `COc1cc(NC(=O)N2CC(=O)N3CCc4c(F)cccc4C3C2)cc(OC)c1OC` (centres undefined), the EC50 is > 20 µM (inactive).

Regarding `COc1cc(C=CC(=O)c2ccc3c(c2)OCCO3)cc(Br)c1O`, the EC50 is 0.151 µM.

As to `O=C1C(=Cc2ccccc2O)NC(=S)N1Cc1ccco1`, the EC50 is 0.955 µM. Under `CCCc1nn2c(N)c(C=C3C=C(Cl)C(=O)C(Cl)=C3)c(=O)nc2s1` stands > 20 µM (inactive); under `OCCN(CCO)c1nc(N2CCCCC2)c2nc(N(CCO)CCO)nc(N3CCCCC3)c2n1`, 3.58 µM and 1.94 µM. The value for `COc1ccc(C(=O)N(Cc2ccccc2)C2CCC(NC(=O)C3CCN(C(=O)c4ccccc4Cl)CC3)CC2)cc1` (centres undefined) was > 20 µM (inactive); that for `CCOC(=O)C1CCCN(c2nc3nonc3nc2N2CCSCC2)C1` (centres undefined) was > 20 µM (inactive). Under `CC1CC2(C)Oc3ccccc3C3OCC1(CO)C(C)C32` (centres undefined) stands > 20 µM (inactive). `COc1ccc(N2C(=O)/C(=C\c3ccc[nH]3)N(C)C2=S)c([N+](=O)[O-])c1`: the EC50 is > 20 µM (inactive). The value for `CN=c1nc(-c2ccccc2)n(-c2ccccc2)s1` was > 20 µM (inactive). Turning to `Cc1ccc(C2=NN(C(=O)CN3CCN(C)CC3)C(c3ccccc3Cl)C2)cc1` (centres undefined), the EC50 was > 20 µM (inactive). The value for `CN(Cc1ccccc1)c1cc(Oc2cccc(Cl)c2)ncn1` was > 20 µM (inactive). The value for `COc1ccc(NC(=O)C2C=CCN2)cc1NC(=O)c1ccco1` (centres undefined) was > 20 µM (inactive). Under `O=C(CC(c1cccc([N+](=O)[O-])c1)c1c[nH]c2ccccc12)NC1CC1` (centres undefined) stands > 20 µM (inactive); under `O=C1NC(c2ccc3c(c2)OCO3)C(C(=O)c2ccccc2)C(O)(C(F)(F)F)N1` (centres undefined), > 20 µM (inactive). As to `CC(=O)[C@]1(O)Cc2c(O)c3c(c(O)c2[C@@H](O[C@H]2C[C@H](N)[C@H](O)[C@H](C)O2)C1)C(=O)c1ccccc1C3=O`, the EC50 was 4.29 µM. The value for `COc1ccc(-c2cnn(CCC(N)=O)c2)c(C)c1` was > 20 µM (inactive); that for `CCOC(=O)C1=C(C)NC(C)=C(C(=O)OCC)C1c1cc(Cl)ccc1OC(F)F` was 14.7 µM.

With `N#CC1C(=N)SC(=N)C(C#N)C1c1cccc(O)c1` (centres undefined), the EC50 is 10.1 µM. Under `CCC1CN(C(=O)c2cc(C(C)C)on2)CCC(=O)N1Cc1ccccc1` (centres undefined) stands > 20 µM (inactive); under `Cc1ccc(Nc2nc(Nc3cccc(F)c3)nc3nccnc23)c(C)c1`, > 20 µM (inactive). Under `CC1N(C)c2ccc(C=Cc3cc[n+](C)cc3)cc2C1(C)C` (centres undefined) stands 8.49 µM; under `O=[N+]([O-])c1ccc(Cl)c2nonc12`, 4.83 µM; under `CCOC(=O)c1ccc(N=c2oc3cc(O)ccc3cc2-c2nc3ccccc3[nH]2)cc1`, 0.204 µM. The value for `C=CCN1C(=O)C(Cc2ccc(OC)cc2)S/C1=N/N=C\c1cccs1` (centres undefined) was > 20 µM (inactive); that for `CC1CCCCC1OCCNC(=O)C1(c2ccc(F)cc2)CCC1` (centres undefined) was > 20 µM (inactive); that for `CCN1CCN(Cc2c(O)cc(C)c3c2O/C(=C\c2ccco2)C3=O)CC1` was 9.72 µM.

For `C[C@@H](NC(=O)CN1Cc2ccc(N3CCOCC3)nc2C1=O)c1ccccc1`, the EC50 was > 20 µM (inactive). For the compound `O=C(NCCSc1ccc(Cl)cc1)c1ccc2c(=O)n3c(nc2c1)CCC3`, the EC50 is > 20 µM (inactive). Under `Cn1c(C(C#N)=Cc2c(F)c(F)c(F)c(F)c2F)nc2ccccc21` stands under 0.039 µM.
